Two molecules from publication PMC12070605 (BMC Chemistry, 2025) can be followed below.

Common to all, as to format: cell-based, human
The test system of assay [1] is MCF-7 cell line. The assay is described as follows: MTT cytotoxicity assay, MCF-7. On the technique in general: Formazan colour is commonly taken as a measure of viable cells.
For assay [2], the system named is MCF-7 cell line. The assay is described as follows: Annexin V-PI flow cytometry apoptosis assay. As to conditions: 72 h, untreated 4.5%. A general note: A flow cytometer gives signals particle by particle.
Assay [3] deals with MCF-7 cell line. The assay is described as follows: Cell cycle analysis by flow cytometry. As to conditions: 72 h, untreated 15.93%.

As for `NNc1nc2ccc(Br)cc2c(=O)n1-c1ccc(Cl)cc1` [7k, 6-bromo-3-(4-chlorophenyl)-2-hydrazineylquinazolin-4(3H)-one], in assay [1], the “improvement of activity compared to Erlotinib” value amounted to 6 folds. Moreover, the “percentage of apoptotic cells” value in assay [2] (5 µM) was 17.46%; in assay [2] (10 µM), 41.2%; in assay [2] (20 µM) it was 56%. The figures for the “accumulation of the cells in S phase” value in assay [3] (5 µM), in assay [3] (10 µM) and in assay [3] (20 µM) were 16.66%, 25.65% and 30.61%, respectively.
For `NNc1nc2ccc(Br)cc2c(=O)n1-c1ccc(F)cc1` [7j, 6-bromo-3-(4-fluorophenyl)-2-hydrazineylquinazolin-4(3H)-one], the “improvement of activity compared to Erlotinib” value in assay [1] is given as 6 folds.
